What follows are compounds tested against T1, Gag-Pol polyprotein [588-1027]/[588-1147] (Human immunodeficiency virus 1, UniProt P04585) (assay: HIV-1 RT Assay). Conditions: not given.
T1 construct: 588-1027; 588-1147

| Structure (SMILES) | IC50 |
| --- | --- |
| S=C(NCCc1ccncc1)Nc1nccs1 [1-[2-(pyridin-4-yl)ethyl]-3-1,3-thiazol-2-ylthiourea] | > 10 µM |
| S=C(NCCc1cccnc1)Nc1nccs1 [1-[2-(pyridin-3-yl)ethyl]-3-1,3-thiazol-2-ylthiourea] | > 10 µM |
| CCCCCCOc1cccc(CC/N=C(\S)Nc2nccs2)c1 [N-(2-(3-(Hexyloxy)phenethyl))-N -(2-thiazolyl)thiourea] | > 10 µM |

Same assay, conditions: pH 7.8; 37 °C

| Structure (SMILES) | IC50 |
| --- | --- |
| S=C(NCCc1ccccc1)Nc1ncccc1Br [N-(2-Phenethyl)-N -(2-(3-bromopyridyl))thiourea] | > 10 µM |
| S=C(NCCc1ccccc1)Nc1cc[nH]n1 [N-(2-Phenethyl)-N -(3-pyrazolyl)thiourea] | > 10 µM |
| O=C(O)c1csc(/N=C(\S)NCCc2ccccc2)n1 [2-{[(2-phenylethyl)carbamothioyl]amino}-1,3-thiazole-4-carboxylic acid] | > 10 µM |
| Cc1csc(NC(=S)NCCc2ccccc2)n1 [3-(4-methyl-1,3-thiazol-2-yl)-1-(2-phenylethyl)thiourea] | 0.1 µM |
| CCc1csc(NC(=S)NCCc2c(F)cccc2F)n1 [N-(2-(2,6-Difluorophenyl)ethyl)-N -(2-(4-ethylthiazolyl))thiourea] | 0.0055 µM |

From BindingDB's records for doi:10.1021/jm00025a010 (Eli Lilly, 1995)
